How the values were obtained:
[1] = for Detection in reactors: reactors incubated with ZEN without ZenA, any time point
[2] = tested on: MCF-7 cell; design: method as in PMID 12596876, PMID 31434326; conditions: cited from earlier work
[3] = tested on: estrogen-sensitive yeast; design: method as in PMID 31434326; conditions: cited from earlier work
[4] = Feeding trial in rumen-fistulated dairy cows: ZEN and ZEN metabolites in feces; assay type: in vivo, Holstein Friesian cows; conditions: for Percentage of concentration relative to the sum of ZEN and ZEN metabolite concentrations: feces
Excerpt: (§1) Ruminal metabolism of ZEN with and without supplementation of ZenA was investigated in four rumen-fistulated Holstein Friesian cows (sex: female; age at start: 5.9 ± 1.0 years; body weight at start: 863 ± 65 kg; physiological stage: non-lactating; general health: good, non-gestating; identification procedure: ear tag 4-digit code). The cows were part of the dairy herd of VetFarm (Teaching and Research Farm) of the University of Veterinary Medicine Vienna in Kremesberg, Austria. All procedures related to these experiments were performed according to Austrian law and following the European Guidelines for the Care and Use of Animals for Research Purpose. The animal experiment was approved by ethics and animal welfare commission of the University of Veterinary Medicine, Vienna and the Austrian Federal Ministry of Education, Science and Research (68.205/0156-WF/V/3b/2017, 30.08.2017).
(§2) In our trial setup, each animal was considered an experimental unit (n = 4). Each animal received the same treatment and served as its own control. First, each animal received ZEN-contaminated concentrate feed. Following a 48-h washout period, each animal received ZEN-contaminated concentrate feed supplemented with ZenA. In brief, for acclimatization, on the day prior to the start of the feeding trial, each animal was manually fed 4 × 500 g of control concentrate (Table 4 and Table 5). Thereafter, animals were manually fed (i) 1 × 500 g concentrate contaminated with ZEN and 3 × 500 g control concentrate on experimental day 1 (ZEN treatment), (ii) 4 × 500 g control concentrate on day 2 (ZEN washout), (iii) 1 × 500 g ZEN-contaminated concentrate supplemented with ZenA and 3 × 500 g control concentrate on day 3 (ZEN+ZenA treatment), and (iv) 4 × 500 g control concentrate on day 4 (ZEN+ZenA washout; Table 6). Animals were treated and assessed in the same random order at each experimental time point.
On days 1 and 3 of the experiment, feces samples were taken from the rectum immediately before concentrate feeding (0 h), as well as 10 h after concentrate feeding (Table 6) and stored at −20 °C. Aliquots (500 mg) of thoroughly homogenized feces samples were extracted for HPLC-MS/MS analysis according to the method described by Binder and coworkers.
HPLC-MS/MS analysis of ZEN, α-ZEL, β-ZEL, HZEN and DHZEN in rumen fluid and feces was performed as described for the in vitro rumen fermentation experiment (see section “In Vitro Rumen Fermentation Experiment”, subsection “Analysis of ZEN and its Metabolites”), with the following modifications. Chromatographic separation was performed with a flow rate of 0.6 mL/min, a duration of 4 min and an injection volume was 1 µL. The gradient started at 30% B which was held for 0.3 min. Subsequently, the proportion of B was increased to 80% from 0.3 to 2 min, and increased to 100% from 2 to 2.1 min. […] LODs for ZEN, α-ZEL, β-ZEL, HZEN and DHZEN in rumen fluid were 2.83 nmol/L (0.9 µg/L), 2.81 nmol/L (0.9 µg/L), 2.81 nmol/L (0.9 µg/L), 2.68 nmol/L (0.9 µg/L) and 10.27 nmol/L (3 µg/L), respectively. LOQs for ZEN, α-ZEL, β-ZEL, HZEN and DHZEN in rumen fluid were 9.43 nmol/L (3 µg/L), 9.37 nmol/L (3 µg/L), 9.37 nmol/L (3 µg/L), 8.93 nmol/L (3 µg/L) and 30.81 nmol/L (9 µg/L), respectively. LODs for ZEN, α-ZEL, β-ZEL, HZEN and DHZEN in feces were 0.03 nmol/g (8.4 ng/g), 0.03 nmol/g (8.4 ng/g), 0.03 nmol/g (8.4 ng/g), 0.03 nmol/g (8.4 ng/g) and 0.10 nmol/g (28 ng/g), respectively. LOQs for ZEN, α-ZEL, β-ZEL, HZEN and DHZEN in feces were 0.09 nmol/g (28 ng/g), 0.09 nmol/g (28 ng/g), 0.09 nmol/g (28 ng/g), 0.08 nmol/g (28 ng/g) and 0.29 nmol/g (84 ng/g), respectively.

[5] = tested on: pigs; design: method as in PMID 31434326; conditions: in contrast to ZEN; cited from earlier work
[6] = Feeding trial in rumen-fistulated dairy cows: ZEN and ZEN metabolites in rumen fluid from reticulum, dorsal mat layer and ventral sac; assay type: in vivo, Holstein Friesian cows; conditions: for Detection in rumen fluid: any reticulorumen location
Excerpt: as §1, §2
For production of ZEN-contaminated concentrate feed, lyophilizate of ZEN with maltodextrin as a carrier was prepared. To this end, in three parallel preparations, 50 mg ZEN (Fermentek, Jerusalem, Israel) was dissolved in 1 L RO water (pH 12; adjusted with NaOH) using a magnetic stirrer set to 400 rpm and 37 °C for 20 min. Subsequently, 100 g maltodextrin DE19 (Agrana, Vienna, Austria) was added and dissolved by stirring (400 rpm) at room temperature for 10 min. The solution was lyophilized. Lyophilizate was mixed into concentrate feed at an inclusion rate of 2%. The final concentration of ZEN in feed was aimed to be 10 mg/kg and was verified using HPLC-MS/MS analysis as described below. For production of ZEN-contaminated, ZenA-supplemented concentrate, a zearalenone hydrolase ZenA preparation (ZENzyme®; EC 3.1.1.-; BIOMIN Holding GmbH, Getzersdorf, Austria) was mixed into ZEN-contaminated concentrate to achieve an activity of 128 U/kg feed. Same as in the in vitro trial, 1 U of ZenA was defined as the enzyme activity that hydrolyzes 1 μmol ZEN per minute from 15.71 µM ZEN in Teorell Stenhagen buffer adjusted to pH 7.5 containing 0.1 mg/mL bovine serum albumin at 37 °C.
On days 1 and 3 of the trial (ZEN and ZEN+ZenA treatment, respectively), ruminal digesta samples were taken from reticulum, ventral sac and dorsal mat layer (Figure 3) immediately before concentrate feeding (0 h), as well as 15 min, 1 h, 2 h, 4 h, 7 h and 10 h after concentrate feeding (Table 6). On days 2 and 4 of the trial (washout days), ruminal digesta samples were taken immediately before first concentrate feeding (0 h), as well as 10 h after first concentrate feeding (Table 6). Ruminal digesta samples (10 mL) were taken via a rumen fistula from reticulum and ventral sac (10 cm above the bottom of the rumen) using a pump as described previously. Samples were taken from the dorsal mat layer 20 cm below the gas phase and rumen fluid was obtained by manually squeezing the samples as described previously. Samples were mixed 1:2 with acetonitrile by vortexing. […]

[7] = ZEN+ZenA treatment, 0 h (48 h after ZEN treatment)
[8] = reticulorumen, ZEN treatment, 15 min after feeding, from median of 3 locations
[9] = reticulorumen, ZEN treatment, 1 h
[10] = reticulorumen, ZEN treatment, 4 h
[11] = reticulorumen, ZEN treatment, 7 h
[12] = reticulorumen, ZEN treatment, 10 h
[13] = reticulorumen, ZEN treatment, 24 h
[14] = reticulorumen, ZEN+ZenA treatment, 15 min
[15] = reticulorumen, ZEN+ZenA treatment, 1 h
[16] = reticulorumen, ZEN+ZenA treatment, 4 h
[17] = reticulorumen, ZEN+ZenA treatment, 7 h
[18] = reticulorumen, ZEN+ZenA treatment, 10 h

| Structure (SMILES) | Detection in reactors [1] | Estrogenic response [2] | Estrogenic response [3] | Percentage of concentration relative to the sum of ZEN and ZEN metabolite concentrations ([4]; ZEN treatment, 10 h) [%] | Percentage of concentration relative to the sum of ZEN and ZEN metabolite concentrations [4, 7] [%] | Percentage of concentration relative to the sum of ZEN and ZEN metabolite concentrations ([4]; ZEN+ZenA treatment, 10 h) [%] | Effect on reproductive tract morphology or expression of ZEN-responsive microRNAs [5] | Detection in rumen fluid ([6]; ZEN treatment) | Percentage of concentration relative to the sum of ZEN and ZEN metabolite concentrations [6, 8] [%] | Percentage of concentration relative to the sum of ZEN and ZEN metabolite concentrations [6, 9] [%] | Percentage of concentration relative to the sum of ZEN and ZEN metabolite concentrations [6, 10] [%] | Percentage of concentration relative to the sum of ZEN and ZEN metabolite concentrations [6, 11] [%] | Percentage of concentration relative to the sum of ZEN and ZEN metabolite concentrations [6, 12] [%] | Percentage of concentration relative to the sum of ZEN and ZEN metabolite concentrations [6, 13] [%] | Percentage of concentration relative to the sum of ZEN and ZEN metabolite concentrations [6, 14] [%] | Percentage of concentration relative to the sum of ZEN and ZEN metabolite concentrations [6, 15] [%] | Percentage of concentration relative to the sum of ZEN and ZEN metabolite concentrations [6, 16] | Percentage of concentration relative to the sum of ZEN and ZEN metabolite concentrations [6, 17] | Percentage of concentration relative to the sum of ZEN and ZEN metabolite concentrations [6, 18] | further results |
| --- | --- | --- | --- | --- | --- | --- | --- | --- | --- | --- | --- | --- | --- | --- | --- | --- | --- | --- | --- | --- |
| C[C@H](O)CCCC(=O)CCC/C=C/c1cc(O)cc(O)c1 [DHZEN, decarboxylated hydrolyzed zearalenone] | not detected | did not elicit an estrogenic response | did not elicit an estrogenic response | 0.0 | 0.0 | 0.0 | did not affect | not detected | 0.0 | 0.0 | 0.0 | 0.0 | 0.0 | 0.0 | 0.0 | 0.0 | 0.0 (traces) % | 0.0 (traces) % | 0.0 (traces) % | First detected (time after start of incubation) ([1]; reactors incubated with ZEN and ZenA (100 U/kg feed)): 2 h; Detection in feces ([4]; ZEN and ZEN+ZenA treatments, any sample): not detected |
| C[C@H](O)CCCC(=O)CCC/C=C/c1cc(O)cc(O)c1C(=O)O [HZEN, hydrolyzed zearalenone] | not detected | did not elicit an estrogenic response | did not elicit an estrogenic response | 0.0 | 0.0 | 31.9 | did not affect | not detected | 0.0 | 0.0 | 0.0 | 0.0 | 0.0 | 0.0 | 94.1 | 100.0 | 100.0% | 100.0% | 100.0% | Not detected anymore at (time after concentrate feeding) ([6]; reticulorumen, ZEN+ZenA treatment): 24 h |
